2 sequences from US10058587B2, “Peptide composition for cancer treatment by inhibiting TRPV6 calcium channel activity” (priority 2008, dated 2018) can be followed below.

The subject of data set [1] is CaOV3 ovarian cancer cell line. Kind of data set: Induction of apoptosis (APO-ONE caspase 3/7) and cell viability (CellTiter Blue). More on the design: key to Decline in cell viability: decreased (+); or not (−). The data set is classed as cell-based, human. Here is the method: CAOV-3 was cultured in Dulbecco's Modified Eagle Medium (4.5 g/L glucose) with 4 mM L-glutamine, 1.5 g/L sodium bicarbonate and 10% (v/v) fetal bovine serum.
The levels of apoptotic induction and cell viability were determined by multiplexing the measurements for single samples. CellTiter Blue and APO-ONE assay systems from Promega allows the determination of cell viability correlated to cell number, and induction of apoptosis. This protocol uses a fluorgenic peptide that contains a peptide recognition-sequence for caspase 3 and caspase 7, […] proteolytic enzymes of the apoptosis cascade. The CellTiter Blue reagent was added to wells in a 96-well plate containing cells under test, immediately after addition of peptide solution or vehicle. About 5000 cells were plated into the wells the day before. At the chosen time (Day 1, Day 2 etc.) the fluorescence was measured at 590 nm (emission) after excitation at 560 nm. The caspase 3/7 activity was measured (485 nm Ex/527 nm Em) in the same wells after adding 120 uL of the Apo-ONE reagent, freeze fracturing at −80° C. for 1 hr, and incubating for 1 hr at room temperature.
For this work, the concentrations of SorC13 and SorC27 used were 0 uM, 1 uM, 10 uM and 100 uM. The experiments extended over a 5 to 7 day period. All measurements were done in quadruplicate with both a blank (no cells) and control (vehicle, no peptide) used to correct the test measurements. The time-response data, and the dose-response data were plotted as means±standard error of the mean. Any statistical comparisons were done with the Student's t-test or by ANOVA analysis over the dose course. The level of statistical significance was considered to be the 95% confidence interval (i.e., p≤0.05).
To compare the effect of the two SorC-peptides against the gold-standard treatment for ovarian cancers SorC13 or SorC27 was compared to treatment with a carboplatin and taxol (CAT) cocktail (10 uM Paclitaxel, 20 mM carboplatin) using the APO-ONE assay, which measures the combined activities of caspase 3 and caspase 7. […]

The subject of data set [2] is T47D breast cancer xenografts. Kind of data set: T-47D breast cancer xenograft, SorC13 with Paclitaxel (Example 27). The data set is classed as in vivo, NOD/SCID mice. Here is the method:
Tumor volumes (V) were calculated by caliper measurement using standard measurements of the width (W), length (L) and thickness (T) of tumors. Animals were randomized into treatment groups so that the median tumor volumes of each group were similar at the start of dosing. Percentage ΔT/ΔC values, as a measure of efficacy, were determined where ΔC refers to change in volume of control or untreated tumor, and ΔT refers to change in volume of treated tumor.
Animals were intraperitoneally (i.p.) injected with the vehicular control, or the low, medium or high doses of CAT or CAT and SorC13. Mice received low medium or high doses of CAT or CAT and SorC13 by i.p. injection every day for 12 days or CAT injections as set out in Table 10. Paclitaxel was injected first, followed by carboplatin 30 minutes later and then SorC13. The tumor volume and body weights were measured every day. As well, general health of the animals was monitored every day.
The human […] breast cancer cell line T-47D (ATCC #HTB-133), was cultured in growth media prepared with ATCC complete growth medium. The base medium for the T-47D cell line is ATCC-formulated RPMI-1640 Medium. The complete growth medium is supplemented with 0.2 Units/ml bovine insulin and fetal bovine serum to a final concentration of 10% (v/v). Cells were cultured at 37° C. in an atmosphere of 95% air and 5% carbon dioxide with sub-culturing done according to ATCC guidelines.
The cell preparation, formulation, implantation, measurement and treatment procedures were otherwise as described in Example 26 and Table 10 but with Paclitaxel at low (6 mg/kg), medium (10 mg/kg) and high (16 mg/kg) doses.

The nature of data set [3]: Degradation rate in rat plasma (HPLC). The data set is classed as in vitro ADME. As to the method: Rat plasma was obtained from blood taken from sacrificed rats (Sprague-Dawley) and placed into heparinized glass vials to prevent clotting. Whole blood was centrifuged at 8000×g for 5 minutes to spin down the cells leaving the plasma as supernatant. Human whole blood samples from healthy humans were taken in lithium-heparinized vacuum tubes. The samples were placed into 2.0 mL microcentrifuge tubes and centrifuged at 8000×g for 5 min. The plasma was carefully separated from red blood cells and used immediately.
Determination of degradation rate of the C-peptides was done by measuring, with the HPLC protocol, the amount of either SorC13 or SorC27 in dosed plasma samples, after time. Sample tubes (500 uL) containing 2 uL of 2 mM Pefabloc were previously prepared for sample delivery SorC13 (1.0 mg) or SorC27 (2.0 mg) were dissolved in 1.0 mL of fresh plasma (37° C.) and placed in an incubating water bath at 37° C. A sample (100 uL) was taken immediately and quenched in sample tubes containing 2 uL of 2 mM Pefabloc, mixed vigorously and immediately frozen at −80° C. This initial sample represented time zero for the run. At successive time intervals of 5 minutes, 100 uL samples were withdrawn, quenched in Pefabloc, mixed, and frozen at −80° C. until analysis.
The rat plasma degradation rate was determined for the plasma from three different rats, while the rate of degradation in human plasma used six separate plasma samples. The data used were the means (±SEM) and were fitted to a simple one-phase exponential decay model to determine the half-life of the two peptides. This also allowed the calculation of a static degradation rate. FIG. 11 is illustrative of the rate at which SorC27 was degraded in human plasma.

Where no end group is shown, it is not given here.

KEFLHPSKVDLPR [SorC13, KEFLHPSKVDLPR]: in data set [1] (CAT = 10 uM Paclitaxel, 20 mM carboplatin), the “apoptosis (treatment:control ratio) compared with CAT cocktail” value was “produced earlier and more intense apoptosis cascade than the CAT cocktail”. In data set [1] (Day5, SorC13 100 uM), the “Apoptosis Index (1 = no effect)” value stood at 2.7. Moreover, the “Decline in cell viability” value in data set [1] (Day5, SorC13 100 uM) is listed as “+”. For the same sequence, the “% ΔT/ΔC (tumor volume normalized to control)” value in data set [2] (Day 6, SorC13 300 mg/kg) worked out at 66.0%; in data set [2] (Day 12, SorC13 300 mg/kg), 1.0%; in data set [2] (Day 18 (rest period), SorC13 300 mg/kg), 54.5%; in data set [2] (Day 24 (rest period), SorC13 300 mg/kg), 48.7%. The Mean tumour volume in data set [2] (after 12-day rest post-treatment, SorC13 300 mg/kg) is given as 55.76 mm^3. In data set [2] (day 12 of treatment, SorC13 300 mg/kg i.p. daily), this sequence showed a Mean tumor volume of 43.61 mm^3.

In data set [3] (Sprague-Dawley, rat, plasma, 37° C.), EGKLSSNDTEGGLCKEFLHPSKVDLPR [SorC27] yielded a half-life of 21 min. Besides, the “binding to plasma proteins” value in data set [3] (rat plasma) is given as “doesn't bind to”.
